For 63 compounds, IC50 results are on record in patent US20250171459A1, “2-METHYL-4',5'-DIHYDROSPIRO[PIPERIDINE-4,7'-THIENO[2,3-C]PYRAN] DERIVATIVES AS INHIBITORS OF APOL1 AND METHODS OF USING SAME” (Vertex Pharmaceuticals Incorporated, priority 2022, published 2025).

A value given as a limit tells only on which side of the number the result lay.

This assay concerns the target T1, APOL1 (Homo sapiens, UniProt O14791).
T1 sequence (O14791 1-398 S342G/I384M): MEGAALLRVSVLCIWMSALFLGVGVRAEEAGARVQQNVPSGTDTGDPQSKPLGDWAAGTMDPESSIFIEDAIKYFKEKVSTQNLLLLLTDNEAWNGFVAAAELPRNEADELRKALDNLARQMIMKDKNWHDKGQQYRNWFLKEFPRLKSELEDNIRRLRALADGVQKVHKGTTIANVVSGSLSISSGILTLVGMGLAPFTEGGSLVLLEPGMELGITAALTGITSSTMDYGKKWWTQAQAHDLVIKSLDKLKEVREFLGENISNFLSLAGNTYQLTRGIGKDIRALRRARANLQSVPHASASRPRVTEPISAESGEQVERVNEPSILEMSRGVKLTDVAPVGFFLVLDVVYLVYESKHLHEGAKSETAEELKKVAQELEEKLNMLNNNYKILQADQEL
Nature of the assay: MultiTox-Fluor Multiplex Cytotoxicity Assay in tet-inducible APOL1 T-REx-HEK293 cells (cell rescue, ratio of dead to live cells). The settings on record: tet-inducible transgenic APOL1 T-REx-HEK293 cell lines, 50 ng/mL tet, 24 hours; read-out: IP50 (i.e., IC50 for cell proliferation). It counts as cell-based. An outline of the steps: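 T-REx-HEK293 cells with tet-inducible APOL1 were treated with compound (10 μM top, 10-point 3-fold dilution, duplicate) plus 50 ng/mL tetracycline for 24 h at 37° C, in DMEM with 2% tet-free FBS. MultiTox-Fluor protease signals gave a dead/live ratio, normalized to no tet (100% viability) and tet alone (0%).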
As for `CCc1cc2c(s1)CCO[C@@]21CCN(Cc2cn(Cc3cnn(CCO)c3)nn2)[C@@H](C)C1` [Compound 60], the IC50 was < 100 nM.
On to `CCc1cc2c(s1)CCO[C@@]21CCN(Cc2cn(C3CCCN(C(C)=O)C3)nn2)[C@@H](C)C1` (stereo partly drawn) [Compound 61], for which the IC50 is 100 to 500 nM.
As to `CCc1cc2c(s1)CCO[C@@]21CCN(Cc2cn([C@H]3CS(=O)(=O)C[C@H]3O)nn2)[C@@H](C)C1` [Compound 62], the IC50 was < 100 nM.
Regarding `CCc1cc2c(s1)CCO[C@@]21CCN(Cc2cn(CC(=O)N3CCCC3)nn2)[C@@H](C)C1` [Compound 63], the IC50 is < 100 nM.
As for `CCc1cc2c(s1)CCO[C@@]21CCN(Cc2cn(Cc3cc(C)n[nH]3)nn2)[C@@H](C)C1` [Compound 64], the IC50 is < 100 nM.
Regarding `CCc1cc2c(s1)CCO[C@@]21CCN(Cc2cn(Cc3nnc[nH]3)nn2)[C@@H](C)C1` [Compound 65], the IC50 is 100 to 500 nM.
On to `CCc1cc2c(s1)CCO[C@@]21CCN(Cc2cn(Cc3c(C)cc(C)nc3O)nn2)[C@@H](C)C1` [Compound 66], for which the IC50 was in the range of 100 to 500 nM.
`CCc1cc2c(s1)CCO[C@@]21CCN(Cc2cn(CCc3ncn[nH]3)nn2)[C@@H](C)C1` [Compound 67]: the IC50 is < 100 nM.
Take `CCc1cc2c(s1)CCO[C@@]21CCN(Cc2cn(CCn3ccnc3C)nn2)[C@@H](C)C1` [Compound 68]: the IC50 fell in the range of 100 to 500 nM.
Regarding `CCc1cc2c(s1)CCO[C@@]21CCN(Cc2cn(CC(O)c3nccn3C)nn2)[C@@H](C)C1` (stereo partly drawn) [Compound 69], the IC50 is < 100 nM.
As for `CCc1cc2c(s1)CCO[C@@]21CCN(Cc2cn(-c3cnc(C)nc3)nn2)[C@@H](C)C1` [Compound 70], the IC50 is < 100 nM.
`CCc1cc2c(s1)CCO[C@@]21CCN(Cc2cn(-c3cncc(F)c3)nn2)[C@@H](C)C1` [Compound 71]: the IC50 was < 100 nM.
With `CCc1cc2c(s1)CCO[C@@]21CCN(Cc2cn(-c3cncnc3)nn2)[C@@H](C)C1` [Compound 72] the figure was < 100 nM; with `CCc1cc2c(s1)CCO[C@@]21CCN(Cc2cn(-c3cccnc3)nn2)[C@@H](C)C1` [Compound 73], < 100 nM.
For `CCc1cc2c(s1)CCO[C@@]21CCN(Cc2cn(CC3(C(O)C(C)C)CC3)nn2)[C@@H](C)C1` (stereo partly drawn) [Compound 74], the IC50 fell in the range of 100 to 500 nM.
As for `CCOCCOCC(O)Cn1cc(CN2CC[C@]3(C[C@@H]2C)OCCc2sc(CC)cc23)nn1` (stereo partly drawn) [Compound 75], the IC50 is < 100 nM.
As for `CCc1cc2c(s1)CCOC21CCN(Cc2cn(CC(O)c3ccccn3)nn2)C(C)C1` (stereo not drawn) [Compound 76], the IC50 lay within 100 to 500 nM.
Regarding `CCc1cc2c(s1)CCOC21CCN(Cc2cn(CC3(O)CCOC3)nn2)C(C)C1` (stereo not drawn) [Compound 77], the IC50 lay within 500 to 1000 nM.
As to `CCc1cc2c(s1)CCO[C@@]21CCN(Cc2cn(CC3CCC4(CC3)COC4)nn2)[C@@H](C)C1` [Compound 78], the IC50 lay within 100 to 500 nM.
With `CCc1cc2c(s1)CCO[C@@]21CCN(Cc2cn(CC3(CO)CCOCC3)nn2)[C@@H](C)C1` [Compound 79] the figure was 100 to 500 nM; with `CCc1cc2c(s1)CCO[C@@]21CCN(Cc2cn(CC(C)(C)CCO)nn2)[C@@H](C)C1` [Compound 80], 100 to 500 nM.
Regarding `CCc1cc2c(s1)CCO[C@@]21CCN(Cc2cn(CC(=O)NCCO)nn2)[C@@H](C)C1` [Compound 81], the IC50 was 100 to 500 nM.
In the case of `CCc1cc2c(s1)CCOC21CCN(Cc2cn(CC(C)CO)nn2)C(C)C1` (stereo not drawn) [Compound 82], the IC50 is 100 to 500 nM.
For `CCc1cc2c(s1)CCO[C@@]21CCN(Cc2cn(CC3(CCO)CC3)nn2)[C@@H](C)C1` [Compound 83], the IC50 fell in the range of 100 to 500 nM.
On to `CCc1cc2c(s1)CCOC21CCN(Cc2cn(CC(C)(O)COC)nn2)C(C)C1` (stereo not drawn) [Compound 84], for which the IC50 was < 100 nM.
With `CCCC(O)Cn1cc(CN2CC[C@]3(C[C@@H]2C)OCCc2sc(CC)cc23)nn1` (stereo partly drawn) [Compound 85], the IC50 was < 100 nM.
Regarding `CCc1cc2c(s1)CCOC21CCN(Cc2cn(CC(O)C3CCOCC3)nn2)C(C)C1` (stereo not drawn) [Compound 86], the IC50 was < 100 nM.
On to `CCc1cc2c(s1)CCO[C@@]21CCN(Cc2cn(CC3(OCCO)CCOCC3)nn2)[C@@H](C)C1` [Compound 87], for which the IC50 fell in the range of 100 to 500 nM.
As to `CCc1cc2c(s1)CCOC21CCN(Cc2cn(CC(O)CF)nn2)C(C)C1` (stereo not drawn) [Compound 88], the IC50 was < 100 nM.
For `CCc1cc2c(s1)CCO[C@@]21CCN(Cc2cn(CC(O)(CO)CO)nn2)[C@@H](C)C1` [Compound 89], the IC50 was < 100 nM.
Take `CCc1cc2c(s1)CCO[C@@]21CCN(Cc2cn(CC(=O)N3CCOCC3)nn2)[C@@H](C)C1` [Compound 90]: the IC50 was 100 to 500 nM.
With `CCc1cc2c(s1)CCOC21CCN(Cc2cn(CC(O)CS(C)(=O)=O)nn2)C(C)C1` (stereo not drawn) [Compound 91], the IC50 was < 100 nM.
On to `CCc1cc2c(s1)CCOC21CCN(Cc2cn(CC(c3cccnc3)N3CCOCC3)nn2)C(C)C1` (stereo not drawn) [Compound 92], for which the IC50 lay in the range of 500 to 1000 nM.
Consider `CCc1cc2c(s1)CCO[C@@]21CCN(Cc2cn(CC(C)(O)c3ccccc3)nn2)[C@@H](C)C1` (stereo partly drawn) [Compound 93], for which the IC50 is 500 to 1000 nM.
Regarding `CCc1cc2c(s1)CCO[C@@]21CCN(Cc2cn(CC3(COC)CCOCC3)nn2)[C@@H](C)C1` [Compound 94], the IC50 was 100 to 500 nM.
With `CCc1cc2c(s1)CCO[C@@]21CCN(Cc2cn(CC3COCCN3)nn2)[C@@H](C)C1` (stereo partly drawn) [Compound 95], the IC50 was < 100 nM.
Under `CCc1cc2c(s1)CCO[C@@]21CCN(Cc2cn(CC3CS(=O)(=O)CCO3)nn2)[C@@H](C)C1` (stereo partly drawn) [Compound 96] stands < 100 nM; under `CCc1cc2c(s1)CCO[C@@]21CCN(Cc2cn(CC(CC)(CC)OC)nn2)[C@@H](C)C1` [Compound 97], < 100 nM.
Under `CCc1cc2c(s1)CCO[C@@]21CCN(Cc2cn(CC(C)(C)OCCO)nn2)[C@@H](C)C1` [Compound 98] stands 100 to 500 nM; under `CCc1cc2c(s1)CCO[C@@]21CCN(Cc2cn(CC(O)CN3CCCC3=O)nn2)[C@@H](C)C1` (stereo partly drawn) [Compound 99], < 100 nM; under `CCc1cc2c(s1)CCO[C@@]21CCN(Cc2cn(CC(C)(C)C3CCOCC3)nn2)[C@@H](C)C1` [Compound 100], 100 to 500 nM.
As to `CCc1cc2c(s1)CCOC21CCN(Cc2cn(CC(C)(CO)COC)nn2)C(C)C1` (stereo not drawn) [Compound 101], the IC50 was 100 to 500 nM.
With `CCc1cc2c(s1)CCOC21CCN(Cc2cn(CC3(C)COCCO3)nn2)C(C)C1` (stereo not drawn) [Compound 102], the IC50 is < 100 nM.
`CCc1cc2c(s1)CCO[C@@]21CCN(Cc2cn(CC3(C4(O)CCOCC4)CC3)nn2)[C@@H](C)C1` [Compound 103]: the IC50 was 100 to 500 nM.
Take `CCc1cc2c(s1)CCO[C@@]21CCN(Cc2cn(CC3(OCCO)CCC3)nn2)[C@@H](C)C1` [Compound 104]: the IC50 lay in the range of 100 to 500 nM.
With `CCc1cc2c(s1)CCO[C@@]21CCN(Cc2cn(CC3(C4CCOCC4)CC3)nn2)[C@@H](C)C1` [Compound 105] the figure was 500 to 1000 nM; with `CCc1cc2c(s1)CCO[C@@]21CCN(Cc2cn(CC3(CO)CCOC3)nn2)[C@@H](C)C1` (stereo partly drawn) [Compound 106], 100 to 500 nM.
Regarding `CCc1cc2c(s1)CCOC21CCN(Cc2cn(CC(CO)C(C)C)nn2)C(C)C1` (stereo not drawn) [Compound 107], the IC50 is < 100 nM.
`CCc1cc2c(s1)CCO[C@@]21CCN(Cc2cn(CC(C)COC)nn2)[C@@H](C)C1` (stereo partly drawn) [Compound 108]: the IC50 lay in the range of 100 to 500 nM.
Take `CCc1cc2c(s1)CCO[C@@]21CCN(Cc2cn(CC(C)(C)C(C)(C)O)nn2)[C@@H](C)C1` [Compound 109]: the IC50 was 100 to 500 nM.
As for `CCc1cc2c(s1)CCO[C@@]21CCN(Cc2cn(CC(C)(CO)OC)nn2)[C@@H](C)C1` (stereo partly drawn) [Compound 110], the IC50 is 100 to 500 nM.
With `CCc1cc2c(s1)CCO[C@@]21CCN(Cc2cn(CC(C)(C)C3(O)CCOCC3)nn2)[C@@H](C)C1` [Compound 111], the IC50 fell in the range of 100 to 500 nM.
As for `CCc1cc2c(s1)CCO[C@@]21CCN(Cc2cn(CC(O)Cc3ccc(F)cc3)nn2)[C@@H](C)C1` (stereo partly drawn) [Compound 112], the IC50 is < 100 nM.
With `CCc1cc2c(s1)CCO[C@@]21CCN(Cc2cn(C[C@H](O)C(C)(C)C)nn2)[C@@H](C)C1` [Compound 113] the figure was < 100 nM; with `CCc1cc2c(s1)CCO[C@@]21CCN(Cc2cn(CC3(C)CCOCC3)nn2)[C@@H](C)C1` [Compound 114], 100 to 500 nM.
As for `CCc1cc2c(s1)CCOC21CCN(Cc2cn(CC(CC)CO)nn2)C(C)C1` (stereo not drawn) [Compound 115], the IC50 was < 100 nM.
Under `CCc1cc2c(s1)CCOC21CCN(Cc2cn(CC3CC(=O)N(CCOC)C3)nn2)C(C)C1` (stereo not drawn) [Compound 116] stands 100 to 500 nM; under `CCc1cc2c(s1)CCOC21CCN(Cc2cn(CC(O)C3CCCO3)nn2)C(C)C1` (stereo not drawn) [Compound 117], < 100 nM.
Regarding `CCc1cc2c(s1)CCO[C@@]21CCN(Cc2cn(CC3(C)COC3)nn2)[C@@H](C)C1` [Compound 118], the IC50 fell in the range of 100 to 500 nM.
As for `CCc1cc2c(s1)CCOC21CCN(Cc2cn(CC3(OCCO)CCOC3)nn2)C(C)C1` (stereo not drawn) [Compound 119], the IC50 is < 100 nM.
As for `CCc1cc2c(s1)CCO[C@@]21CCN(Cc2cn(CC(C)(C)C(C)O)nn2)[C@@H](C)C1` (stereo partly drawn) [Compound 120], the IC50 was in the range of 100 to 500 nM.
With `CCc1cc2c(s1)CCO[C@@]21CCN(Cc2cn(CC(CO)CC3CCOCC3)nn2)[C@@H](C)C1` (stereo partly drawn) [Compound 121], the IC50 was < 100 nM.
As for `CCc1cc2c(s1)CCO[C@@]21CCN(Cc2cn(CC(F)(F)C3(O)CCOCC3)nn2)[C@@H](C)C1` [Compound 122], the IC50 is 100 to 500 nM.
